Read-outs that look alike come from different tables or passages of the source.
Tests used:
[1] = target: RET wild type (RET WT) (Homo sapiens (Human), UniProt P07949); assay: HTRF kinase activity assay, RET wild type; assay type: biochemical; conditions: 1 μM ATP
[2] = target: RET (V804M) (Homo sapiens (Human), UniProt P07949, V804M); assay: HTRF kinase activity assay, RET (V804M); assay type: biochemical; conditions: 10 μM ATP
[3] = target: RET (M918T) (Homo sapiens (Human), UniProt P07949, M918T); assay: HTRF kinase activity assay, RET (M918T); assay type: biochemical; conditions: 10 μM ATP
Sequence of RET (M918T) (P07949 29-1114 M918T): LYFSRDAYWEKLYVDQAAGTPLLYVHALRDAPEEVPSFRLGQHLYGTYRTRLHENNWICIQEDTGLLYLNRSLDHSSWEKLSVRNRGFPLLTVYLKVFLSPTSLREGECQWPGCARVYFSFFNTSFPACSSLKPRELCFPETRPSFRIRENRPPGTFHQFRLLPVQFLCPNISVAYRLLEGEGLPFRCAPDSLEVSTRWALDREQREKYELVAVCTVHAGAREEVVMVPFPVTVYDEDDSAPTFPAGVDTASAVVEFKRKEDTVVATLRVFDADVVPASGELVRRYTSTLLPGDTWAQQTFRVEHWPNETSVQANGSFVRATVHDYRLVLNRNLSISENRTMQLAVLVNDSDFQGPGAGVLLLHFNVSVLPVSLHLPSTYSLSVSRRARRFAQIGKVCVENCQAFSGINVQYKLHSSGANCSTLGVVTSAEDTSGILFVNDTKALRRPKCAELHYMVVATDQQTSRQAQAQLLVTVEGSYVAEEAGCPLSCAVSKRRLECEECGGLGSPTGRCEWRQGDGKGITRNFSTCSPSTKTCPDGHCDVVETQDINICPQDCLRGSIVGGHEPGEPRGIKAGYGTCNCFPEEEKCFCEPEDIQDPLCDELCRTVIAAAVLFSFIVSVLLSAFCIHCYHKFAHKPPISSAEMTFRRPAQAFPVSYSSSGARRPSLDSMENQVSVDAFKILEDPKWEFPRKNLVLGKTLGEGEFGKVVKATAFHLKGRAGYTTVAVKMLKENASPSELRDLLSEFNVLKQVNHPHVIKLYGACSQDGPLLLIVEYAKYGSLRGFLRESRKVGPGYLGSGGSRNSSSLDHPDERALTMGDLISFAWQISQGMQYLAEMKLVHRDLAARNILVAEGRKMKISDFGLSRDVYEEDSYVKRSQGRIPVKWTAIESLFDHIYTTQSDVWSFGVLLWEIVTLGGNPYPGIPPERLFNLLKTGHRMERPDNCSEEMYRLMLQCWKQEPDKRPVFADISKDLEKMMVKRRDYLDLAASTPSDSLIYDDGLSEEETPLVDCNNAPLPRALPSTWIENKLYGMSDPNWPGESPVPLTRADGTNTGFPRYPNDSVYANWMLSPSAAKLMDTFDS

[4] = target: CCDC6-RET (Homo sapiens (Human), UniProt P07949); assay: HTRF kinase activity assay, CCDC6-RET; assay type: biochemical; conditions: 1 μM ATP
Sequence of CCDC6-RET (Homo sapiens (Human), UniProt P07949) (P07949 other isoform, or with tags, fused parts or gaps): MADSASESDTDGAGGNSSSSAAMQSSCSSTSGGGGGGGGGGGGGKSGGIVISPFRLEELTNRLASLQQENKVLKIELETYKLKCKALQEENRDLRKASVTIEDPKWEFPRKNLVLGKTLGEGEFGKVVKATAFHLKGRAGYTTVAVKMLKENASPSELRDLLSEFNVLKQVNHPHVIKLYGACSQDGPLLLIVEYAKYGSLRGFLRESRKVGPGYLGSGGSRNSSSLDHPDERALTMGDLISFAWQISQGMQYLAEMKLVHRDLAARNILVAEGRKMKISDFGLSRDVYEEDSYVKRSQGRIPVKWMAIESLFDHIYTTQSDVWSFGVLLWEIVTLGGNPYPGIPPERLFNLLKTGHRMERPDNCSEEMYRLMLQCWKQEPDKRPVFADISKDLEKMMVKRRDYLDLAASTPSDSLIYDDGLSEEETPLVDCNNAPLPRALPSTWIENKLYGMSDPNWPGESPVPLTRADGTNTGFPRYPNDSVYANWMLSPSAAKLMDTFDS

[5] = target: KDR (VEGFR2) (Homo sapiens (Human), UniProt P35968); assay: HTRF kinase activity assay, KDR; assay type: biochemical; conditions: 20 μM ATP
Sequence of KDR (VEGFR2) (P35968 20-1356): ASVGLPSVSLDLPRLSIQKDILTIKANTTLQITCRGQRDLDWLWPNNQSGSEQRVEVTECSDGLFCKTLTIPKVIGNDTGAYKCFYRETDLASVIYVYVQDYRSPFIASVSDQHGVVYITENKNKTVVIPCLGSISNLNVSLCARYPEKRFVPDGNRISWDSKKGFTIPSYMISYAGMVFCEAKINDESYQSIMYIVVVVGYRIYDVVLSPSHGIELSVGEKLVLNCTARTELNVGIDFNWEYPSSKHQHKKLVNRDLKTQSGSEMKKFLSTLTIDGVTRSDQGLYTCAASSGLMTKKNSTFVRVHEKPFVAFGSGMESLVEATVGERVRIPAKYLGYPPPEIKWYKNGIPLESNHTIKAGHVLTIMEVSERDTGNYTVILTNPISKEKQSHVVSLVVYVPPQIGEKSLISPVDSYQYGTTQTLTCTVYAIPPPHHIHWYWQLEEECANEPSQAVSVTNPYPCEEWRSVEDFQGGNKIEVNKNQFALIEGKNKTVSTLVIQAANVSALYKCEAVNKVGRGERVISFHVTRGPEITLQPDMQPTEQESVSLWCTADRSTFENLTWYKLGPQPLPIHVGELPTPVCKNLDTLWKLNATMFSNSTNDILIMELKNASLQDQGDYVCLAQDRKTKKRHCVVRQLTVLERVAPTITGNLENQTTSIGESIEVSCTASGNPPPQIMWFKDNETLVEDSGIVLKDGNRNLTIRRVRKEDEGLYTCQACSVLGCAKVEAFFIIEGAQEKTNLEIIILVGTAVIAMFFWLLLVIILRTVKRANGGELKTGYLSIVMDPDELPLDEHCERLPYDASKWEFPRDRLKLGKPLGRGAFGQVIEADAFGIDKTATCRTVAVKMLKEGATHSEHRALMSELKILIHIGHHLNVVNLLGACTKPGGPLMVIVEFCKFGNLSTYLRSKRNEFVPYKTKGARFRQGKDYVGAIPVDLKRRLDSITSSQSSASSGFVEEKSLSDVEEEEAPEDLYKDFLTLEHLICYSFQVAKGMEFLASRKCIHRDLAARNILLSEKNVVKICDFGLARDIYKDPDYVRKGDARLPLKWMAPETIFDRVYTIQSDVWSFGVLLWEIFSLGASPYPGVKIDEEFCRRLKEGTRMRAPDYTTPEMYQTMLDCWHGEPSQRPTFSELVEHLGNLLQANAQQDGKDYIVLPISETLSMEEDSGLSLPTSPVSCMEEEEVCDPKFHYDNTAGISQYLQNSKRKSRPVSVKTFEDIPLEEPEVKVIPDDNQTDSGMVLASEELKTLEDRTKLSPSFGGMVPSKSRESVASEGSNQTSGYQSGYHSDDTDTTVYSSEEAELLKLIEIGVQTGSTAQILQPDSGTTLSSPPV

[6] = test system: Ba/F3 KIF5B-RET cells; assay: Ba/F3 KIF5B-RET cell inhibition (CellTiter-Glo); assay type: cell-based; conditions: Mus musculus, BaF3, 72 h
Protocol: (§1) Activity Experiment 3: Inhibition of Ba/F3 KIF5B-RET Cells by Prepared Compounds Ba/F3 KIF5B-RET, Ba/F3KIF5B-RET-V804M, Ba/F3 RET-M918T and Ba/F3 KIF5B-RET-G810R cells growing in log phase were harvested and counted using a […]. The cell viability was determined by the trypan blue exclusion method, and the cell viability was kept over 90%. The cell concentration was adjusted, and 90 μL of the cell suspension was added to a 96-well plate. The cells in the 96-well plate were incubated overnight at 37° C. with 5% CO2 and 95% humidity. Corresponding gradient concentrations of drug solutions (the maximum concentration was 1000 nM) were added to the 96-well plate inoculated with cells at 10 μL/well. Triplicate wells were set per drug concentration, and the final concentration of DMSO was 0.1%. The drug-treated cells in the 96-well plate were incubated for another 72 h at 37° C. with 5% CO2 and 95% humidity. After the drug treatment was completed, 100 μL of CellTiter-Glo reagent was added to each well. The cell plate was shaken on an orbital shaker for 5 min to lyse the cells and then let stand at room temperature for 20 min to stabilize the luminescence signals, and then the luminescence values were read. The data were analyzed using the GraphPad Prism 5.0 software. Dose-response curves were fit to the data using nonlinear S-curve regression, and IC50 was calculated from the curves.

[7] = test system: Ba/F3 KIF5B-RET-V804M cells; assay: Ba/F3 KIF5B-RET-V804M cell inhibition (CellTiter-Glo); assay type: cell-based; conditions: Mus musculus, BaF3, 72 h
Protocol: as §1

[8] = test system: Ba/F3 RET-M918T cells; assay: Ba/F3 RET-M918T cell inhibition (CellTiter-Glo); assay type: cell-based; conditions: Mus musculus, BaF3, 72 h
Protocol: as §1

[9] = target: CCDC6-RET (Homo sapiens (Human), UniProt P07949+Q16204); assay: HTRF kinase activity assay, CCDC6-RET; assay type: biochemical; conditions: 1 μM ATP
Sequence of CCDC6-RET (Homo sapiens (Human), UniProt P07949+Q16204) (P07949 other isoform, or with tags, fused parts or gaps): as the sequence (P07949 other isoform, or with tags, fused parts or gaps) above

[10] = Metabolic stability in human liver microsomes
[11] = target: T1, hERG potassium channel (Homo sapiens (Human), UniProt Q12809); assay: Inhibition of hERG potassium channel, whole-cell patch clamp in HEK293 cells
T1 sequence (Q12809 whole entry): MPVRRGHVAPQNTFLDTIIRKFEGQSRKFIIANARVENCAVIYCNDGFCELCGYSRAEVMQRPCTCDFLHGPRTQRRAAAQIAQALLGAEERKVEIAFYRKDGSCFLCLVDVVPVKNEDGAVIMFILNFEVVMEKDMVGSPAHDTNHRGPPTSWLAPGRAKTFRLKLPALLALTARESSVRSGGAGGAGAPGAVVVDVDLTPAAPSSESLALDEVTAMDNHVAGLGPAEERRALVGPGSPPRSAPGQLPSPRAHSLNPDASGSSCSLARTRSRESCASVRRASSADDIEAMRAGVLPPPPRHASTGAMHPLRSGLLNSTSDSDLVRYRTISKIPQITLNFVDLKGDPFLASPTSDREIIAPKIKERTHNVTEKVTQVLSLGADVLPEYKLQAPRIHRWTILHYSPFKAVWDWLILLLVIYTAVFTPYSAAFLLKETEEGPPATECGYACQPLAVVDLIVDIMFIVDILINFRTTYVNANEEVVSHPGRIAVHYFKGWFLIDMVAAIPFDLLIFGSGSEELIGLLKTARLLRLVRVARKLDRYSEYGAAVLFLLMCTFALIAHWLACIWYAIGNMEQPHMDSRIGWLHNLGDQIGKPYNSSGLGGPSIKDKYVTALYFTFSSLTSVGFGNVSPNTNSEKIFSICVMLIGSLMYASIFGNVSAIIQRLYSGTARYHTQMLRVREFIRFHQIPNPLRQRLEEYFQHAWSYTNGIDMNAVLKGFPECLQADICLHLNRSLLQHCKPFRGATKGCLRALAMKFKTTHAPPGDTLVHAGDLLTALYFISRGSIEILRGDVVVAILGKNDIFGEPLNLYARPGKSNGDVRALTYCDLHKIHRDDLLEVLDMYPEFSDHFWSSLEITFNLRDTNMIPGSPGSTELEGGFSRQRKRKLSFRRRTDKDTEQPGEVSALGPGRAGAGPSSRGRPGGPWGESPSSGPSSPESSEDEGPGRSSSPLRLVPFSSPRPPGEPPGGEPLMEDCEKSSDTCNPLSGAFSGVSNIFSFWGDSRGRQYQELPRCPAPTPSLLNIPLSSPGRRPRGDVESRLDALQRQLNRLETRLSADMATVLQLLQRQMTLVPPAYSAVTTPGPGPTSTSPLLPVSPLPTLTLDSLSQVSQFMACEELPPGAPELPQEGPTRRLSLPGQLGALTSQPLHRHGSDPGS

[12] = target: T1, hERG potassium channel
[13] = in vitro; conditions: human, microsomes; for microsomal CLint at 1 µM: CLint (μL/min/mg); for half-life at 1 µM: T1/2 (min)
[14] = test system: Ba/F3 KIF5B-RET-G810R cells; assay: Ba/F3 KIF5B-RET-G810R cell inhibition (CellTiter-Glo); assay type: cell-based; conditions: Mus musculus, BaF3, 72 h, maximum concentration 1000 nM
Protocol: as §1

[15] = read-out: IC50 for inhibition of hERG potassium channel, HEK293 cells stably expressing hERG, patch clamp
[16] = CLint (μL/min/mg), human liver microsomes, NADPH, Table 3
[17] = T1/2 (min), human liver microsomes, NADPH, Table 3

Sequence of RET wild type (RET WT) (P07949 29-1114): as the sequence (P07949 29-1114 M918T) above, with T890M counted along it
Sequence of RET (V804M) (P07949 29-1114 V804M): as the sequence (P07949 29-1114 M918T) above, with V776M, T890M counted along it

SMILES	IC50 [1] [nM]	IC50 [2] [nM]	IC50 [3] [nM]	IC50 [5] [nM]	IC50 [6] [nM]	also measured
COc1ccc(CN2C3CC2CN(c2ccc(-c4cc(N5CCC(OC)C5)cn5ncc(C#N)c45)cn2)C3)cn1 (stereo not shown) [Compound 68]	1.3	5.37	8.47	16.6	2	IC50 [4]: 2.54 nM
COc1ccc(CN2C3CC2CN(c2ccc(-c4cc(N5CCC(O)C5)cn5ncc(C#N)c45)cn2)C3)cn1 (stereo not shown) [Compound 67]	0.79	1.09	0.75	24.6	3.58	
COc1ccc(CN2C3CC2CN(c2ccc(-c4cc(N5CCNCC5)cn5ncc(C#N)c45)cn2)C3)cn1 [Compound 96]					41.8	IC50 [7]: 196 nM; IC50 [8]: 45.1 nM
COc1ccc(CN2CCCN(c3ccc(-c4cc(-c5cnn(C)c5)cn5ncc(C#N)c45)cn3)CC2)cn1 [Compound 32]	2.11	4.8	1.73	39.1		IC50 [9]: 3.13 nM
COc1ccc(CN2C3CC2CN(c2ccc(-c4cc(N5CC(C)(O)C5)cn5ncc(C#N)c45)cn2)C3)cn1 [Compound 86]					3.66	
COc1ccc(CN2C3CC2CN(c2ccc(-c4cc(N5CCP(C)(=O)CC5)cn5ncc(C#N)c45)cn2)C3)cn1 [Compound 20]						half-life at 1 µM [10]: 231 min; microsomal CLint at 1 µM [10]: 6 µL/min/mg; IC50 [11, 15]: 22200 nM
COc1ccc(CN2C3CC2CN(c2ccc(-c4cc(N5CCOCC5=O)cn5ncc(C#N)c45)cn2)C3)cn1 [Compound 69]	18.6	38.5	22.3	755		IC50 [4]: 12 nM
COc1ccc(CN2C3CC2CN(c2ccc(-c4cc(N5CC6CC(C5)N6)cn5ncc(C#N)c45)cn2)C3)cn1 [Compound 16]						IC50 [12]: 2060 nM; microsomal CLint at 1 µM [13]: 8.8 µL/min/mg; half-life at 1 µM [13]: 158 min
COc1ccc(CN2C3CC2CN(c2ccc(-c4cc(C#CC(C)(C)O)cn5ncc(C#N)c45)cn2)C3)cn1 [Compound 66]	1.66	7.69	2.05	124	9.17	IC50 [4]: 1.13 nM
[2H]C([2H])([2H])N1CCN(c2cc(-c3ccc(N4CC5CC(C4)[N+]5([O-])Cc4ccc(OC)nc4)nc3)c3c(C#N)cnn3c2)CC1 (stereo not shown) [Compound 99]	56.6					
COc1ccc(CN(C)C2CCCCC2N(C)c2ccc(-c3cc(-c4cnn(C)c4)cn4ncc(C#N)c34)cn2)cn1 (stereo not shown) [Compound 34]	35.8	210	97.8	311		IC50 [9]: 71.6 nM
COc1ccc(CN2C3CC2CN(c2ccc(-c4cc(N5CC6CC(C5)N6C)cn5ncc(C#N)c45)cn2)C3)cn1 [Compound 17]						IC50 [12]: 1310 nM; microsomal CLint at 1 µM [13]: 36.4 µL/min/mg; half-life at 1 µM [13]: 38.1 min
CO[C@]1(C(=O)N[C@@H](C)c2ccc(-n3cc(F)cn3)nc2)CC[C@H](c2nc(C)cc(Nc3cc(C)[nH]n3)n2)CC1 [BLU-667, reference compound]					11.3	IC50 [7]: 11.1 nM; IC50 [8]: 12.9 nM; IC50 [14]: 481 nM
COc1ccc(CN2C3CC2CN(c2ccc(-c4cc(N5CCC(C)(O)C5)cn5ncc(C#N)c45)cn2)C3)cn1 (stereo not shown) [Compound 70]	1.17	1.01	1.62	23.9	0.99	IC50 [4]: 1.02 nM; IC50 [7]: 11.9 nM; IC50 [8]: 1.15 nM; IC50 [14]: 194 nM; microsomal CLint at 1 µM [10, 16]: 50.6 µL/min/mg; half-life at 1 µM [10, 17]: 27.4 min; IC50 [11]: 4740 nM
[2H]C([2H])([2H])[N+]1([O-])CCN(c2cc(-c3ccc(N4CC5CC(C4)N5Cc4ccc(OC)nc4)nc3)c3c(C#N)cnn3c2)CC1 [Compound 101]	2.5			215		
COc1ccc(CN2CCC(Nc3ccc(-c4cc(-c5cnn(C)c5)cn5ncc(C#N)c45)cn3)CC2)cn1 [Compound 21]	45	188	80	109		IC50 [9]: 60.5 nM
COc1ccc(CN2C3CC2CN(c2ccc(-c4cc(N5CCCC(O)C5)cn5ncc(C#N)c45)cn2)C3)cn1 (stereo not shown) [Compound 82]					17.1	
COc1ccc(CN2C3CC2CN(c2ccc(-c4cc(N5CCN(C)C(=O)C5)cn5ncc(C#N)c45)cn2)C3)cn1 [Compound 89]					24	IC50 [7]: 95.3 nM; IC50 [8]: 11.6 nM; IC50 [14]: 959 nM; IC50 [11, 15]: 7170 nM
COc1ccc(CN2C3CC2CN(c2ccc(-c4cc(N5CCOCC5)cn5ncc(C#N)c45)cn2)C3)cn1 [Compound 65]					8.06	IC50 [7]: 58.6 nM; IC50 [8]: 23.9 nM; microsomal CLint at 1 µM [10, 16]: 44.8 µL/min/mg; half-life at 1 µM [10, 17]: 30.9 min; IC50 [11, 15]: 2720 nM
COc1ccc(CN2CCN(c3ccc(-c4cc(-c5cc6n(n5)CCC6)cn5ncc(C#N)c45)cn3)CC2)cn1 [Compound 58]	4.98	19.3	9.52	134		
COc1ccc(CN2C3CC2CN(c2ccc(-c4cc(-c5cc6n(n5)CCC6)cn5ncc(C#N)c45)cn2)C3)cn1 [Compound 57]						microsomal CLint at 1 µM [13]: 69.8 µL/min/mg; half-life at 1 µM [10, 17]: 19.9 min
COc1ccc(CN2C3CC2CN(c2ccc(-c4cc(-c5cnn6c5CCC6)cn5ncc(C#N)c45)cn2)C3)cn1 [Compound 51]	4.61	7.16	3.9	52		IC50 [9]: 2.15 nM
COc1ccc(CN2C3CC2CN(c2ccc(-c4cc(N5CCN(C)CC5)cn5ncc(C#N)c45)cn2)C3)cn1 [Compound 87]					11.8	IC50 [7]: 116 nM; IC50 [8]: 13.4 nM; IC50 [14]: 431 nM; microsomal CLint at 1 µM [10, 16]: 35.8 µL/min/mg; half-life at 1 µM [10, 17]: 38.7 min; IC50 [11, 15]: 2130 nM
COc1ccc(CN2C3CC2CN(c2ccc(-c4cc(NCC(C)(C)O)cn5ncc(C#N)c45)cn2)C3)cn1 [Compound 78]					13.6	

Source: patent US20230322769A1, “HETEROAROMATIC RING COMPOUND AS RET KINASE INHIBITOR, AND PREPARATION AND USE THEREOF” (JIANGSU CHIA TAI FENGHAI PHARMACEUTICAL CO., LTD., priority 2020, published 2023)
